Measured values as given in patent US8431527B2, “Methods for alleviating deleterious effects of 3-deoxyglucosone” (Fox Chase Cancer Center, priority 1997, dated 2013).

What was measured:
[1] = Locus of 3-O-methyl sorbitollysine uptake in vivo (tissue, urine, plasma recovery); design: species or system rats
Description: Six rats were injected intraperitoneally with […] (4.4 mg) of 3-O-methyl sorbitollysine. The rats' urine was collected for 3 hours, after which the rats were sacrificed. The tissues to be analyzed were removed and freeze clamped in liquid nitrogen. Perchloric acid extracts of the tissues were used for metabolite analysis. The tissues examined were taken from the brain, heart, muscle, sciatic nerve, spleen, pancreas, liver and kidney. Plasma and urine were also analyzed.

[2] = system: 3DG; assay: 3-O-methyl sorbitollysine lowers plasma 3DG in diabetic and non-diabetic rats; assay type: in vivo; details: Day 8
Description: A cohort of twelve diabetic rats was divided into two groups of six. The first group received saline-only injections, and the second received injections of 3-O-methyl sorbitollysine in saline solution. The same procedure was conducted on a cohort of twelve non-diabetic rats.

[3] = Stability of FL3P in aqueous solution; assay type: physicochemical; details: degrades to 3DG, lysine and inorganic phosphate
Description: FL3P is not stable in aqueous solution. It rapidly degrades to form 3DG, lysine and inorganic phosphate. This reaction also occurs in vivo. It is not currently know if the degradation of FL3P in vivo is a spontaneous or enzyme catalyzed reaction. It is strongly suspected, however, that enzymatic catalysis is involved, as the production of 3DG from fructose lysine occurs very rapidly in intact kidney.

[4] = system: FL3P; assay: Kidney FL3P after injection of synthetic fructose-lysine; assay type: in vivo; details: non-diabetic rats
Description: This identification was confirmed in two ways. Authentic fructose-lysine-3-phosphate (FL3P) was synthesized by the procedure disclosed in Example 2, below, and shown to co-resonate in the ^31P NMR spectrum with the peak in diabetic rat kidneys. Synthetic fructose-lysine was also injected into non-diabetic rats.

[5] = system: kidney proteins; design: species or system rats; details: rat, in vivo
Description: Two rats were injected daily with 5 μmols. of either FL or mannitol (used as a control) for 5 days. The animals were sacrificed and the kidneys removed and dissected into the cortex and medulla. Tissues were homogenized in 5 volumes of 50 mM Tris.HCl containing 150 mM KCl, 15 mM MgCl2 and 5 mM DTT, pH 7.5. Cellular debris was removed by centrifugation at 10,000 g for 15 minutes, and the supernate was then centrifuged at 150,000 g for 70 minutes. The soluble proteins were analyzed by SDS PAGE on 12% polyacrylamide gels as well as on 4-15 and 10-20% gradient gels.

[6] = system: lysine recovery pathway; assay: Urinary FL, 3DG and 3DF in humans following ingestion of glycated protein; assay type: in vivo; details: seven volunteers, 2 g dose of fructoselysine as glycated protein food
Description: c. Experimental protocol: Volunteers spent two days on a fructoselysine-free diet and then consumed 22.5 g of the food product prepared as described herein, thus effectively receiving a 2 g. dose of fructoselysine. Urine was collected at 2 hour intervals for 14 hours and a final collection was made at 24 hours. d. Measurement of FL, 3DG and 3DF in urine: FL was measured by HPLC with a Waters 996 diode Array using a Waters C18 Free Amino Acid column at 46° and a gradient elution system of acetonitrile-methyl alcohol-water (45:15:40) into acetonitrile-sodium acetate-water (6:2:92) at 1 ml./min. Quantitation employed an internal standard of meglumine. 3DF was measured by HPLC after deionization of the sample. Analyses were performed on a Dionex DX-500 HPLC system employing a PA1 column (Dionex) and eluting with 32 mM sodium hydroxide at 1 ml./min. Quantitation was performed from standard curves obtained daily with synthetic 3DF. 3DG was measured by GC-MS after deionization of the sample. 3DG was derivatized with a 10-fold excess of diaminonaphthalene in PBS. Ethyl acetate extraction gave a salt free fraction which was converted to the trimethyl silyl ethers with Tri-Sil (Pierce). Analysis was performed on a Hewlett-Packard 5890 selected ion monitoring GC-MS system. […] Quantitation of 3DG employed selected ion monitoring using an internal standard of U-13C-3DG.

[7] = system: 3-deoxyglucosone; assay: Reduction of urinary and plasma 3-deoxyglucosone after intraperitoneal injection; assay type: in vivo; details: rats, 10 μmols intraperitoneal
Description: Urine was collected from six rats for three hours. A plasma sample was also obtained. The animals were then given 10 μmols of either sorbitollysine, mannitollysine, or galactitollysine by intraperitoneal injection. Urine was collected for another three hours, and a plasma sample obtained at the end of the three hours.
3-deoxyglucosone was measured in these samples, as described in Example 5, below, and variable volumes were normalized to creatinine. The average reduction of urinary 3-deoxyglucosone was 50% by sorbitollysine, 35% by mannitollysine and 35% by galactitollysine. Plasma 3-deoxyglucosone was reduced 40% by sorbitollysine, 58% by mannitolysine and 50% by galactitollysine.
c. Use of meglumine to reduce urinary 3-deoxyglucosone. Three rats were treated as in b), immediately above, except meglumine (100 μmols) was injected intraperitoneally instead of the above-mentioned lysine derivatives. Three hours after the injection the average 3-deoxyglucosone concentrations in the urine were decreased 42%.
3DG was measured by GC-MS after deionization of the sample. 3DG was derivatized with a 10-fold excess of diaminonaphthalene in PBS. Ethyl acetate extraction gave a salt free fraction which was converted to the trimethyl silyl ethers with Tri-Sil (Pierce). […] Quantitation of 3DG employed selected ion monitoring using an internal standard of U-13C-3DG.

[8] = 3 hours after intraperitoneal injection

## COC(C(O)CNCCCCC(N)C(=O)O)C(O)C(O)CO (centres unmarked) [3-O-methyl Sorbitollysine, 3-O-methyl sorbitollysine]
[1]; [8]
  compound present in plasma: plasma did not
  tissue extracts containing compound (brain, heart, muscle, sciatic nerve, spleen, pancreas, liver, kidney): only tissue extract found to contain 3-O-methyl sorbitollysine was that of the kidney
[1]; urine collected for 3 hours
  compound present in urine: urine also contained 3-O-methyl sorbitollysine
[2]; diabetic rats
  percent reduction of plasma 3DG vs saline control: 53%
[2]; non-diabetic rats
  percent reduction of plasma 3DG vs saline control: 43%

## NC(CCCCNCC(=O)C(OP(=O)(O)O)C(O)C(O)CO)C(=O)O (centres unmarked) [FL3P, fructose-lysine-3-phosphate]
[3]
  stability in aqueous solution: not stable

## NC(CCCCNCC(=O)C(O)C(O)C(O)CO)C(=O)O (centres unmarked) [FL, 1-deoxy-1-(ε-aminolysine)-fructose]
[4]
  levels of FL3P in kidneys following injection: substantial increase
[5]
  SDS PAGE of soluble kidney proteins vs mannitol-injected animal: lower molecular weight bands were missing or visually reduced
[6]
  time of peak urinary 3DF excretion after the FL bolus: about 4 hours

## galactitol lysine [galactitollysine]
[7]; plasma at end of three hours
  plasma 3-deoxyglucosone reduced: 50%
[7]; urine collected three hours after vs before, normalized to creatinine
  average reduction of urinary 3-deoxyglucosone: 35%
